Assay results: BindingDB's records for doi:10.1021/acs.jmedchem.6b01247 (University of Chinese Academy of Sciences, 2016)

What was measured:
[1] = Inhibition of Smo in mouse Shh Light2 cells assessed as inhibition of SAG-induced Hh pathway activity by measuring SAG-EC50 at 100 nM measured after 36 hrs by Gli-luciferase reporter gene assay (Rvb = 2.93 nM)
[2] = Inhibition of Smo in mouse Shh Light2 cells assessed as inhibition of SAG-induced Hh pathway activity by measuring SAG-EC50 at 500 nM measured after 36 hrs by Gli-luciferase reporter gene assay (Rvb = 2.93 nM)
[3] = Inhibition of Smo in mouse Shh Light2 cells assessed as inhibition of SAG-induced Hh pathway activity by measuring SAG-EC50 at 50 nM measured after 36 hrs by Gli-luciferase reporter gene assay (Rvb = 2.93 nM)

## Cc1ccc2c(n1)[C@H]([C@@H](C)C(=O)Nc1ccc(Cl)c(-c3nc4ccccc4n3C)c1)CC[C@H]2C
[1]
  EC50: 47 nM
[2]
  EC50: 137 nM
[3]
  EC50: 24 nM
